Experimental data published in US20160199491A1, “Compounds compositions and methods including thermally labile moieties” (Biosearch Technologies, Inc., priority 2014, published 2016).

Test: Deprotection of a Boc-protected PCR primer at 94° C. in water, PCR buffer or TEAA, tracked by reverse-phase HPLC and mass spec
Assay type: physicochemical
Protocol: The RNaseP forward primer 19-mer [AGATTTGGACCTGCGAGCG](SEQ ID NO: 1) was synthesized on Boc-dG CPG (1 μmol) with Boc dA, dC, and dG amidites. The fully deprotected mass for this primer is 5868 g/mol and the expected mass for Boc protection is […] [15 Boc residues.100 amu/Boc=1500 added]. Deprotection of side chain protecting groups was performed with 25% 2-methoxyethylamine in methanol (1 mL) for 3 hrs at room temp, remove CPG and evaporate to dryness, re-dissolve in DI water (1 mL). The DMT was […] because the Boc group can be used as a hydrophobic handle. The product was desalted with 20-50 micron polystyrene beads packed in a 1 mL cartridge and eluted in 20% ACN/H2O.
The desalted Boc-primer was aliquoted into three microfuge tubes of 100 uL each. The samples were dried down and brought up in 1 mL of house DI water. Only water was added to the first tube. To the second tube 1 mL of PCR buffer pH 8.5, 1× with MgCl2, was added to a final concentration of 6 mM (standard PCR concentrations). To the third tube TEAA was added to give a final concentration of 0.025 N. Each of the three samples was aliquoted into ten 200 uL thin-walled PCR tubes for a total of 30 tubes. All primer preparation was done at room temperature.
An ABI 9700 Thermocycler was preheated to 94° C. Each sample was placed into the heat block and removed at the time point and placed on dry ice to stop the reaction. As a negative control, the T=0 sample was not heated and placed directly in ice at the beginning of the experiment. The samples were allowed to thaw at room temperature and transferred to a 96-well plate for HPLC and mass spectroscopy analysis.
For each time point, reverse-phase and mass spec data were acquired to track the removal of the Boc protecting group. The Boc protected primer is not a single species but rather a collection at various stages of protection.

Boc-primer: RNaseP forward primer 19-mer [AGATTTGGACCTGCGAGCG] (SEQ ID NO: 1) synthesized with Boc dA, dC, and dG amidites (listed as DNA, chemistry not fully specified)
deprotection after 10 minutes under normal PCR buffering (10 minutes, PCR buffer pH 8.5, 1× with MgCl2 6 mM): deprotected | Boc groups after 10 minutes in TEAA (10 minutes, TEAA 0.025 N): some remained | Boc groups after 10 minutes (10 minutes, samples in water, PCR buffer pH 8.5 with MgCl2 6 mM, TEAA 0.025 N): almost all of the Boc groups were gone | Boc groups after 15 minutes in TEAA (15 minutes, TEAA 0.025 N): all were removed
